Columns and labels:
[1] = Tetrazine-induced doxorubicin release from Axial-TCO-1-Doxorubicin in PBS/MeCN (LCMS); details: 10 equiv. tetrazine; 25% MeCN in PBS; 37° C.; LCMS at 4 h (n = 3)
Procedure: PBS/MeCN (1 mL, 3/1), preheated at 37° C. and TCO-2-doxorubicin (10 μL of a 2.5 mM solution in DMSO, 1 eq.) were added to a preheated injection vial. Tetrazine (10 μL of a 25 mM solution in DMSO, 10 eq.) was added and the vial was vortexed. After incubation for 1 hour at 37° C., the vial was placed in LC-MS autosampler at 10° C. LC-MS analysis was performed using a 5% to 100% H2O/MeCN gradient over 11 minutes with a C18 reverse-phase column at 35° C. A control sample containing only TCO-2-doxorubicin (1 eq), as well as a sample containing only doxorubicin (1 eq.), was analyzed under the same conditions. All tetrazine containing samples were measured twice and the doxorubicin control sample was run after every three other samples during an overnight program. […] The calculated percentage of release was corrected when it was observed that the TCO-2-doxorubicin was not fully converted to inv-DA adduct(s). This was done by quantification of remaining dox-TCO, but full conversion was almost always observed. Peak areas (used for doxorubin quantification) were determined at λ=470-500 nm where characteristic doxorubicin absorption takes place and peak integration was done by hand.
(§1) In a similar fashion as Example 3, the release of doxorubicin from TCO-1-doxorubucin as induced by tetrazines 1, 8, 9 in PBS/ACN and in serum was measured.

[2] = Tetrazine-induced release of bead-bound radioactivity from streptavidin beads loaded with 125I-Rtx-TCO-biotin; details: beads with 21 μg ^125I-Rtx-TCO-biotin/mg; 1.5×10^3 eqs tetrazine; 1 hour at room temperature; gamma counting
Procedure: The bead suspension containing 21 μg ^125I-Rtx-TCO-biotin/mg beads (1 mL in PBS) was divided in two aliquots and reacted with a large excess of 3,6-dimethyl-1,2,4,5-tetrazine (8, 1.5×10^3 eqs with respect to Rtx) in DMSO (5 μL) or with DMSO alone (control) and incubated for 1 hour at room temperature on a roller bench. […] SDS-PAGE confirmed that the activity in the supernatant was due to the release of ^125I-Rtx from the beads (FIG. 4), thus confirming cleavage of the Rtx-TCO-biotin linker upon reaction with the 3,6-dimethyl-1,2,4,5-tetrazine.

[3] = Tetrazine-induced doxorubicin release from Axial-TCO-1-Doxorubicin in serum; set-up: species or system mouse; details: 10 equiv. tetrazine; 50% serum; 37° C.; LCMS at 4 h (n = 3)
Procedure: as §1
Serum experiments were conducted as follows:
TCO-1-doxorubucin (6.25×10^−8 mol) was dissolved in DMSO (0.050 mL), and PBS (0.475 mL) was added slowly in aliquots of 0.010 mL, followed by mouse serum (0.475 mL). A portion of this mixture (0.200 mL) was equilibrated at 37° C., and a solution of tetrazine (1.25×10^−7 mol) in DMSO (0.005 mL) was added, and the solution was thoroughly mixed and incubated at 37° C. in the dark for 4 h. Subsequently, cold MeCN (0.200 mL) was added, followed by centrifugation at 13400 rpm for 5 min. The supernatant was used for further analysis by HPLCMS/PDA analysis to determine the release of doxorubicin.

Cc1nnc(C)nn1 [tetrazine 8, 3,6-dimethyl-1,2,4,5-tetrazine]
Doxorubicin release (%) from Axial-TCO-1-Doxorubicin, PBS/MeCN (3/1) [1]: 79 ± 3% | release of the bead-bound radioactivity [2]: 37% | Doxorubicin release (%) from Axial-TCO-1-Doxorubicin, Serum [3]: 75 ± 4%

Source: patent publication US10927139B2, “Chemically cleavable group” (Tagworks Pharmaceuticals B.V., priority 2012, dated 2021)
